For seven compounds, TGI results are on record in PubChem BioAssay (NCI).

Test systems include A549 NSCLC; KM12 colon; MDA-MB-231 breast; MDA-MB-435; NCI/ADR-RES ovarian; RPMI-8226 leukemia; SF-268 CNS; SF-295 CNS; SNB-19 CNS; SNB-75 CNS; U251 CNS.
Holding throughout (experiment): DTP human tumour cell line panel, 48 h

Structures are written as SMILES.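 Exposure lasted 48 hours, with cells grown in 96-well plates and compounds tested at five concentrations. TGI: total growth inhibition.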 A value given as a limit tells only on which side of the number the result lay.

Regarding `C=CCN1C(=O)/C(=C/c2ccc(C)cc2)N=C1SC/C=C/C`, the TGI with A549 NSCLC was above 100 µM; in the assay with KM12 colon, above 100 µM; in the assay with MDA-MB-231 breast, above 100 µM; in the assay with MDA-MB-435, above 100 µM; in the assay on NCI/ADR-RES ovarian it was above 100 µM; in the assay on RPMI-8226 leukemia, 36.6 µM. The TGI in the assay on SF-268 CNS was above 100 µM; in the assay with SF-295 CNS, above 100 µM; in the assay with SNB-19 CNS, above 100 µM; in the assay with SNB-75 CNS it was 70.1 µM; with U251 CNS, 77.6 µM.

On to `CCC(=O)OCc1ccc2oc(=O)c(C(=O)Oc3cncc(Cl)c3)cc2c1`, for which the TGI in the assay with A549 NSCLC, in the assay on KM12 colon, in the assay on MDA-MB-231 breast, in the assay on MDA-MB-435, with NCI/ADR-RES ovarian and in the assay on RPMI-8226 leukemia was above 100 µM in each case. The concentration for total growth inhibition (TGI) in the assay with SF-268 CNS, in the assay on SF-295 CNS, with SNB-19 CNS, in the assay with SNB-75 CNS and with U251 CNS was above 100 µM each time.

As to `Cn1c(N2CCCC2)c(C=O)c(=O)n(C)c1=O`, the TGI in the assay on A549 NSCLC, with KM12 colon, in the assay on MDA-MB-231 breast, in the assay on MDA-MB-435, in the assay with NCI/ADR-RES ovarian and with RPMI-8226 leukemia was above 100 µM in each case. Further, the TGI was above 100 µM in the assay with SF-268 CNS; above 100 µM in the assay with SF-295 CNS; above 100 µM in the assay on SNB-19 CNS; 93 µM in the assay on SNB-75 CNS; above 100 µM with U251 CNS.

As for `O=C(CCCCCCCCC(=O)NN1C(=O)/C(=C\c2ccc(O)c(O)c2)SC1c1c(O)ccc2ccccc12)NN1C(=O)C(=Cc2ccc(O)c(O)c2)SC1c1c(O)ccc2ccccc12` (configuration not stated), the total growth inhibition concentration (TGI) in the assay on A549 NSCLC was above 37.1 µM; in the assay with KM12 colon, above 100 µM; in the assay with MDA-MB-231 breast, above 87.7 µM; in the assay on MDA-MB-435, above 100 µM; with NCI/ADR-RES ovarian, above 100 µM; with RPMI-8226 leukemia it was 21.1 µM. Also, the total growth inhibition concentration (TGI) in the assay with SF-268 CNS is above 100 µM; with SF-295 CNS it was above 100 µM; in the assay with SNB-19 CNS, above 70.3 µM; with SNB-75 CNS it was above 100 µM; in the assay on U251 CNS it was above 54.4 µM.

For `COC(=O)[C@H]1[C@H](C(=O)OC)[C@@H](C)c2c(ccc3c2[nH]c2ccccc23)[C@@H]1C`, the TGI in the assay with A549 NSCLC, in the assay on KM12 colon, in the assay on MDA-MB-231 breast, with MDA-MB-435, in the assay with NCI/ADR-RES ovarian and in the assay on RPMI-8226 leukemia was above 100 µM each time. Moreover, the TGI in the assay on SF-268 CNS was above 100 µM; with SF-295 CNS, above 100 µM; in the assay on SNB-19 CNS it was above 100 µM; in the assay on SNB-75 CNS, 68.7 µM; in the assay with U251 CNS it was above 100 µM.

Consider `OC(c1cccs1)c1cc2ccccc2s1` (configuration not stated), for which the TGI in the assay on A549 NSCLC, with KM12 colon, in the assay with MDA-MB-231 breast, in the assay with MDA-MB-435, with NCI/ADR-RES ovarian and in the assay on RPMI-8226 leukemia was above 10 µM throughout. The TGI in the assay with SF-268 CNS, in the assay with SF-295 CNS, with SNB-19 CNS, in the assay with SNB-75 CNS and in the assay with U251 CNS was above 10 µM each time.

Take `O=C(O)c1c(-c2c3ccc(=O)cc-3oc3cc(O)ccc23)cc2ccccc2c1-c1ccccc1`: the concentration for total growth inhibition (TGI) in the assay on A549 NSCLC, in the assay on KM12 colon, with MDA-MB-231 breast, in the assay with MDA-MB-435, in the assay on NCI/ADR-RES ovarian and in the assay on RPMI-8226 leukemia was above 100 µM throughout. Besides, the TGI in the assay on SF-268 CNS, in the assay on SF-295 CNS, in the assay with SNB-19 CNS, in the assay with SNB-75 CNS and in the assay with U251 CNS was above 100 µM each time.
